Measurements taken from ChEMBL document CHEMBL5465560, “Selectivity Literature for EUbOPEN Chemogenomic Library” (2024).

Experiments:
[1] = target: T1, Serine/threonine-protein kinase BRSK2 (Homo sapiens) (UniProt Q8IWQ3); conditions: at 10 µM
T1 sequence (whole entry): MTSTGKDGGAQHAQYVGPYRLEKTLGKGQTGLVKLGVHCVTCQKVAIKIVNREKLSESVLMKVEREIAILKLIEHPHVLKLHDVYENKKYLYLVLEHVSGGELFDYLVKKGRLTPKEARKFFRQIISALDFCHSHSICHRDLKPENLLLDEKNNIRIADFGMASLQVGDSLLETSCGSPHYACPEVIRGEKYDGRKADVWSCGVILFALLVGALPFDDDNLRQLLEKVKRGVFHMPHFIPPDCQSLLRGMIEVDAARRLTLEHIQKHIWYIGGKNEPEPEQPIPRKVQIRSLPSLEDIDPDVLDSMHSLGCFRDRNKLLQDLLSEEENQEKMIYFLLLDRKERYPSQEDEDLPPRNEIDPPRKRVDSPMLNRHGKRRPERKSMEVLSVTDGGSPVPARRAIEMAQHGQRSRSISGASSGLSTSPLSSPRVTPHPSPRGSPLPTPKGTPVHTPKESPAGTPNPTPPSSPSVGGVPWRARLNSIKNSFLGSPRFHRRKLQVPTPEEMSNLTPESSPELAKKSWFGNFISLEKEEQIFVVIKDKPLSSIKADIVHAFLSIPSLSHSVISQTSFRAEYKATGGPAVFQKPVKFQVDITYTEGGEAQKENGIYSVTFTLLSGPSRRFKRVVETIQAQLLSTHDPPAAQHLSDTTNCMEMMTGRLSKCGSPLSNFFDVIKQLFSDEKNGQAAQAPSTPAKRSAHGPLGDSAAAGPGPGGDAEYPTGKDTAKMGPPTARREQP

[2] = target: Serine/threonine-protein kinase PRP4 homolog (Homo sapiens) (UniProt Q13523); experiment: Selectivity interaction (KinomeScan (DiscoverX)) EUB0000229b PRPF4B; conditions: at 10 µM
[3] = target: Platelet-derived growth factor receptor beta (Homo sapiens, UniProt P09619); experiment: Selectivity interaction (KinomeScan (DiscoverX)) EUB0000655a PDGFRB; conditions: at 10 µM
Sequence of Platelet-derived growth factor receptor beta (P09619 whole entry): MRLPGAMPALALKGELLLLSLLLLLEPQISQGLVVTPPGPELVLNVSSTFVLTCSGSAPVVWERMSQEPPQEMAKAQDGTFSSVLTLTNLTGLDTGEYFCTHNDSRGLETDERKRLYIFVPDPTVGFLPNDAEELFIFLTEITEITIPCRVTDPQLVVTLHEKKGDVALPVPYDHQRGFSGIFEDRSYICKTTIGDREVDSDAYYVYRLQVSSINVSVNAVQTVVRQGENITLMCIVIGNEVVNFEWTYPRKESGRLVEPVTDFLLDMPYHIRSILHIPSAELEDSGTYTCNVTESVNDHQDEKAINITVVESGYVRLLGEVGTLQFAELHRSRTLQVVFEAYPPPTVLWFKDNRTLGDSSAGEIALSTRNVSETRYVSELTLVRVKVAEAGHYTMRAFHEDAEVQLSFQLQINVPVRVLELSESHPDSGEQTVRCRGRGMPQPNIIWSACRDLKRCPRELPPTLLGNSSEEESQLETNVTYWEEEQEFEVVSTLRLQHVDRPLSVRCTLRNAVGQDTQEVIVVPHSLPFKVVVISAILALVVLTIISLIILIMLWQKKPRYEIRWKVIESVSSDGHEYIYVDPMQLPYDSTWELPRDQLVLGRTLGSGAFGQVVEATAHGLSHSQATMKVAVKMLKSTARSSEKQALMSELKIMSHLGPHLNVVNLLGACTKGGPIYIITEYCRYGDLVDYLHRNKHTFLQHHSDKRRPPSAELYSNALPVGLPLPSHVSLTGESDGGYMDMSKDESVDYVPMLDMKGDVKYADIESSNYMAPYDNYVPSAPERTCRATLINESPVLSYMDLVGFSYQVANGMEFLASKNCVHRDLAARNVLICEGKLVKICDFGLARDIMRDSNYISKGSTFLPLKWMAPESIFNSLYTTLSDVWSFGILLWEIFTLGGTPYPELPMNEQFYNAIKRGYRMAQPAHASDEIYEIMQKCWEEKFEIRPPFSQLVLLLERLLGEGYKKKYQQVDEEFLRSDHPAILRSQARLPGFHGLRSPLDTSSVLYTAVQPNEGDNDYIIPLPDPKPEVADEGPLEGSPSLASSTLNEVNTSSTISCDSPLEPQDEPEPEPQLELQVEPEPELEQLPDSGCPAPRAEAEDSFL

[4] = target: Tyrosine-protein kinase Fer (Homo sapiens) (UniProt P16591); experiment: Selectivity interaction (ProQinase) EUB0000171b FER
Sequence of Tyrosine-protein kinase Fer (Homo sapiens) (P16591 whole entry, looked up): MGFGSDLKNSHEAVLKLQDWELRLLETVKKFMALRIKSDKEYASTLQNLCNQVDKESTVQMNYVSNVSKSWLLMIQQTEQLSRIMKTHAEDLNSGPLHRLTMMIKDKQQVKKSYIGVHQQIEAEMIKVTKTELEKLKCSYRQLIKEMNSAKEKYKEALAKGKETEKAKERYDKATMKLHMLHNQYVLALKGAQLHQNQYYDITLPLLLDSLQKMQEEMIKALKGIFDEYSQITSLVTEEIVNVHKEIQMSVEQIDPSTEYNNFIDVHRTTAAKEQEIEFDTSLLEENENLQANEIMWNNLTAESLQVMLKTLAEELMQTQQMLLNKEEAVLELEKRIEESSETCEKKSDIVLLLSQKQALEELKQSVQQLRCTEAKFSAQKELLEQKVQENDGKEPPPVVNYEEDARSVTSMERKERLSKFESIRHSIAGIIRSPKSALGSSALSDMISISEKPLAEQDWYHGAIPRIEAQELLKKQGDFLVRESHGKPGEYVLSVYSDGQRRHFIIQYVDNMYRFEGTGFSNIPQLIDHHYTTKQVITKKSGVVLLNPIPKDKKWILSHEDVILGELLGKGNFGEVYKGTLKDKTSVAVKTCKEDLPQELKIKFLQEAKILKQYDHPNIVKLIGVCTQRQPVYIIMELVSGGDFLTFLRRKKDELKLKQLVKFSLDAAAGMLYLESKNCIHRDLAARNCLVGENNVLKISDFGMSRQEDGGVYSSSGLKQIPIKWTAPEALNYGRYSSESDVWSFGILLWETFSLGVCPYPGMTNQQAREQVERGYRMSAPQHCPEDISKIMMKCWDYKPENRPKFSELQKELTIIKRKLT

[5] = target: 5-hydroxytryptamine receptor 1E (Homo sapiens) (UniProt P28566); experiment: Selectivity interaction (GPCR panel (PDSP screen)) EUB0001079a HTR1E; conditions: at 10 µM
Sequence of 5-hydroxytryptamine receptor 1E (Homo sapiens) (P28566 whole entry): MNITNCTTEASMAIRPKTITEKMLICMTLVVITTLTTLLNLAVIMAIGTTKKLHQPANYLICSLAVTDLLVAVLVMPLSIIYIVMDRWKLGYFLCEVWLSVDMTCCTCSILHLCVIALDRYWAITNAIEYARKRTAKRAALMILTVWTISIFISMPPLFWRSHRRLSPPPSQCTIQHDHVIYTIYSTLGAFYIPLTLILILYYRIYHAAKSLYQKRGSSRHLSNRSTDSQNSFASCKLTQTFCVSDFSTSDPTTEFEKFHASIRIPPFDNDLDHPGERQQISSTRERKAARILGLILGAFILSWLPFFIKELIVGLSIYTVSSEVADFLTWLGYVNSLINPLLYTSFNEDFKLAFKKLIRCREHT

[6] = target: Serine/threonine-protein kinase ATR (Homo sapiens) (UniProt Q13535); experiment: Selectivity interaction (Kinase panel (KiNativ target engagement assay in Jurkat cells)) EUB0001635a ATR; format: cell-based; conditions: at 1 µM
[7] = target: Receptor tyrosine-protein kinase erbB-2 (Homo sapiens, UniProt P04626); experiment: Selectivity interaction (Kinase panel (Z-LYTE Assay)) EUB0001632a ERBB2; conditions: at 10 µM
Sequence of Receptor tyrosine-protein kinase erbB-2 (P04626 whole entry): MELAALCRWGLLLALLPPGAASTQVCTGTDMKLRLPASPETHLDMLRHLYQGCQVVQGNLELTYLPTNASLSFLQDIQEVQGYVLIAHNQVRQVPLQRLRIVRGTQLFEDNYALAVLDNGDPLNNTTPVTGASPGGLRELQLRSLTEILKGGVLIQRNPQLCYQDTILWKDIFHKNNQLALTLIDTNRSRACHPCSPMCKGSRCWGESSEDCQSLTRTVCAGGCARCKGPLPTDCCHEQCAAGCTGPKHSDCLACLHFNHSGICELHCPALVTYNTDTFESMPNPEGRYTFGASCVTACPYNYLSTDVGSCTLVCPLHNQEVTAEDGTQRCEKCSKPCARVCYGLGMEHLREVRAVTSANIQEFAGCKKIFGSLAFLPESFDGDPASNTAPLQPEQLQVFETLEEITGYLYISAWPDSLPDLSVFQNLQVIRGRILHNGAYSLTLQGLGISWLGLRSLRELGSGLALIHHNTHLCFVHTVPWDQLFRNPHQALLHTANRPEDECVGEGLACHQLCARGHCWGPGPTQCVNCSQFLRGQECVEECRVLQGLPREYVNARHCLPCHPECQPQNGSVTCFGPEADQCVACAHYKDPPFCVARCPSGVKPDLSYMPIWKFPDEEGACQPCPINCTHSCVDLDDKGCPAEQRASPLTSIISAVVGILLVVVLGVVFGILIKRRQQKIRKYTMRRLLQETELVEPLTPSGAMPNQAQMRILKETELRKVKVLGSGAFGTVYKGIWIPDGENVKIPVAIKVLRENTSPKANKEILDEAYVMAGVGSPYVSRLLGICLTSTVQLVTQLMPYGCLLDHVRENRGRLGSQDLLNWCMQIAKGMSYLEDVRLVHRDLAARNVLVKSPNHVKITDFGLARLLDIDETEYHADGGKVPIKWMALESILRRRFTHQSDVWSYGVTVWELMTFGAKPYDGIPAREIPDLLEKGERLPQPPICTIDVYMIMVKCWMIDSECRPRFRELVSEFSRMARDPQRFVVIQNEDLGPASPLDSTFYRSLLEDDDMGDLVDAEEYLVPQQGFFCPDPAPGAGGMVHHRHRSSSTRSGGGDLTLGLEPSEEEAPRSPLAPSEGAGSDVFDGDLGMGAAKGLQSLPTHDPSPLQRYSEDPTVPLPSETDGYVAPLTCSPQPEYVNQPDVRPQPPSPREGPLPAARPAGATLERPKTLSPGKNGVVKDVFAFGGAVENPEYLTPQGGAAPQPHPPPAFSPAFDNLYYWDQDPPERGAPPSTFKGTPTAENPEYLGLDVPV

[8] = target: T2, Serine/threonine-protein kinase tousled-like 1 (Homo sapiens) (UniProt Q9UKI8); experiment: Selectivity interaction (ActivX KiNativ screen (kinase selectivity in THP-1 cell lysates)) EUB0000639a TLK1; format: subcellular; conditions: lysate, at 0.2 µM
T2 sequence (whole entry): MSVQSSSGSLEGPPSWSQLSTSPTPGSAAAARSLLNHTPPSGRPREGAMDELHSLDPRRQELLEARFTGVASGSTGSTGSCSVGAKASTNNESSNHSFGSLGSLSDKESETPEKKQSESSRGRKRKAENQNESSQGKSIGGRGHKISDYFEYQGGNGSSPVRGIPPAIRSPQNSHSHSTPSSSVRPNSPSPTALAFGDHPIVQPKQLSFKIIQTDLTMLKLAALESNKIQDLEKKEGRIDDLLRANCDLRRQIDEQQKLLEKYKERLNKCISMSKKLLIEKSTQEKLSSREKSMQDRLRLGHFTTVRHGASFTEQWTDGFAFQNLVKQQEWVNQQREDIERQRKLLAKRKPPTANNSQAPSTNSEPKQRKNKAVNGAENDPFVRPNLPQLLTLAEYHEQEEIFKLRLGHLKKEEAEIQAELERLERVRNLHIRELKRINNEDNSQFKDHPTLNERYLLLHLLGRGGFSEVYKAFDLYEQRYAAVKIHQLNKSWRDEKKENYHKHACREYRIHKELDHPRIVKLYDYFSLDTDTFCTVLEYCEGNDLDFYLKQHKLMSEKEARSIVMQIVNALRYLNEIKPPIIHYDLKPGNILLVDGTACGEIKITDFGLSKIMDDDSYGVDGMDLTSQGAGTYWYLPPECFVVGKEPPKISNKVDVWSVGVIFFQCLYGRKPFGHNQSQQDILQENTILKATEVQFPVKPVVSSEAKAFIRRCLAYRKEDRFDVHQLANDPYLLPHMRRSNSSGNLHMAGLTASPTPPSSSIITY

[9] = target: T3, SNF-related serine/threonine-protein kinase (Homo sapiens) (UniProt Q9NRH2); experiment: Selectivity interaction (ActivX KiNativ screen (kinase selectivity in THP-1 cell lysates)) EUB0000639a SNRK; format: subcellular; conditions: lysate, at 5 µM
T3 sequence (whole entry): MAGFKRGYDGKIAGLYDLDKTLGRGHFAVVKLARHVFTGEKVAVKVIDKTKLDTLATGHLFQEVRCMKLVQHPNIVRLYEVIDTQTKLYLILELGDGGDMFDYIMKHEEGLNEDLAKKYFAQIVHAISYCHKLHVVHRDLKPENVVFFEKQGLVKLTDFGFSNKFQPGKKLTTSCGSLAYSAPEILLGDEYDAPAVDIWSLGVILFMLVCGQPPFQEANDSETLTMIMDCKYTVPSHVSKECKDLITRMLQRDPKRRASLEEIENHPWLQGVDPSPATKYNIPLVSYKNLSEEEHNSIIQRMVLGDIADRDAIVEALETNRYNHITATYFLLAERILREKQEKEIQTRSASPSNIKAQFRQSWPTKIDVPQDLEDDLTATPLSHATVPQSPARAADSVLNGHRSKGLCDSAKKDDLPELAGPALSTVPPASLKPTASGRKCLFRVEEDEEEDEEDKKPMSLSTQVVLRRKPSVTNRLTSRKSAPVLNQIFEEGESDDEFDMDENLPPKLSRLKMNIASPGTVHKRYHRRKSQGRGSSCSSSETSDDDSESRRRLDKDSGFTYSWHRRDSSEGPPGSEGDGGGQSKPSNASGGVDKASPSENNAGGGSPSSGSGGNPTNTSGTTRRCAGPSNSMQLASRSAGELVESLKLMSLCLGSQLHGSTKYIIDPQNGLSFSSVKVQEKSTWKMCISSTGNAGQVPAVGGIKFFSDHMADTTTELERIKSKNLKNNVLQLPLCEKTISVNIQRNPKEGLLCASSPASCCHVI

[10] = target: Cyclin-dependent kinase 15 (Homo sapiens) (UniProt Q96Q40); experiment: Selectivity interaction (KinomeScan (DiscoverX)) EUB0001049a CDK15; conditions: at 1 µM
Sequence of Cyclin-dependent kinase 15 (Homo sapiens) (Q96Q40 whole entry): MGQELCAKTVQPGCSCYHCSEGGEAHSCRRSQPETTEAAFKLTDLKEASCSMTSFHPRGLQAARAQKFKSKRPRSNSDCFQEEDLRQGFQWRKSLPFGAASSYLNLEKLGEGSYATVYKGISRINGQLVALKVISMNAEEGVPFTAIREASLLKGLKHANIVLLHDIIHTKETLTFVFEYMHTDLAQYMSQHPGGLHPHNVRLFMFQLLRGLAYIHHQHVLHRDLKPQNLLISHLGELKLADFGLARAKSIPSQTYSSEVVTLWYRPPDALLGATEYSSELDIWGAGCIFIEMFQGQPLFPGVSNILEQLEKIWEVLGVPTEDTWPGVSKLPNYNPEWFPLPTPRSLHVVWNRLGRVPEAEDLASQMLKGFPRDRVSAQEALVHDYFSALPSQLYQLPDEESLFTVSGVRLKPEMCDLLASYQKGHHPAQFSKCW

[11] = target: Tyrosine-protein kinase Fes/Fps (Homo sapiens) (UniProt P07332); experiment: Selectivity interaction (KinomeScan (DiscoverX)) EUB0000618a FES; conditions: at 10 µM
Sequence of Tyrosine-protein kinase Fes/Fps (Homo sapiens) (P07332 whole entry): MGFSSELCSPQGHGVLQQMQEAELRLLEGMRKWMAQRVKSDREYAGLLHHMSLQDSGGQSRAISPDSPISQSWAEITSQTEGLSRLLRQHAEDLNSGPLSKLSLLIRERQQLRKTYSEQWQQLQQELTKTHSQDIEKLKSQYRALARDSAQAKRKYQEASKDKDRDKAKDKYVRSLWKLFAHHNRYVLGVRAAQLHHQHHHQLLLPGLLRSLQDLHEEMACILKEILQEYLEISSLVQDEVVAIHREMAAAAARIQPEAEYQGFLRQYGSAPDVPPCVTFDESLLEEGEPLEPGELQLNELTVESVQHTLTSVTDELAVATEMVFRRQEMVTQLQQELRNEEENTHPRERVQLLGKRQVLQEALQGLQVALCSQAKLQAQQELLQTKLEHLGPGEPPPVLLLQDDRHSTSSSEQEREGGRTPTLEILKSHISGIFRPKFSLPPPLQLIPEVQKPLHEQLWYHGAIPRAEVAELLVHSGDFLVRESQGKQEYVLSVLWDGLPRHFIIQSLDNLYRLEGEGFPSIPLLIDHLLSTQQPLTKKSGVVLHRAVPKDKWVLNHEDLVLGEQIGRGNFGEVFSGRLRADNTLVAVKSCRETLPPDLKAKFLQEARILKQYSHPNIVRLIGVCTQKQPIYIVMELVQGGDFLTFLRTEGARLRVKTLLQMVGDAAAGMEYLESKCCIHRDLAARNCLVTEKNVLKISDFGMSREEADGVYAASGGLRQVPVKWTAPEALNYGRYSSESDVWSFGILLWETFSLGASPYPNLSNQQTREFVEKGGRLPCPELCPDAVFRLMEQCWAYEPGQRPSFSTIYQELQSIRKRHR

## CCN(CC)CCCCNc1ncc2cc(-c3cc(OC)cc(OC)c3)c(NC(=O)NC(C)(C)C)nc2n1
[1]
  % of control: 100%

## COc1cc(N(C)c2ccnc3ccc(C(F)(F)F)cc23)cc(OC)c1OC
[2]
  % binding: 100%

## CN(C)CCOc1ccc(-c2nc(-c3ccncc3)c(-c3ccc4c(c3)CC/C4=N\O)[nH]2)cc1
[3]
  % of control: 63%

## C=CC(=O)Nc1cccc(C(=O)Nc2ccc(Nc3cc(-c4[nH]c(SC)nc4C)ccn3)cc2)c1
[4]; at 1 µM
  % of control: 104%
[4]; at 5 µM
  % of control: 93%

## Nc1cnc(N2CCc3cc(S(=O)(=O)Nc4c(F)cc(Cl)cc4F)cc(N4CCCC4=O)c32)nc1 [TP-020n]
[5]
  % of inhibition: -4.55%

## C=CC(=O)Nc1ccc(C(=O)Nc2[nH]nc3c2CN(C(=O)N[C@H](CN(C)C)c2ccccc2)C3(C)C)cc1
[6]
  % of engagement: -11.3%

## Cn1cc(-n2cnc3c(NCc4nc5cc(Cl)c(Cl)cc5[nH]4)nc(N4CCOCC4)nc32)cn1
[7]
  % of control: -0.819%

## CC[C@@H]1[C@H](F)C(=O)N[C@@H]1COc1nccc2cc(C(N)=O)c(OC)cc12 [ZIMLOVISERTIB]
[8]
  % of inhibition: 9.2%
[9]
  % of inhibition: 16.9%

## COc1cc(Nc2nc(C)cc(-c3cnn4nc(OC)ccc34)n2)cc(C(F)(F)F)c1
[10]
  % of control: 90%

## O[C@H]1CC[C@H](Nc2ncc3nc(Nc4c(F)cc(F)cc4F)n([C@H]4CCOC4)c3n2)CC1
[11]
  % of control: 100%
